Experiments:
ECHCG (Barnyardgrass) [1] = experiment: Postemergence herbicidal evaluation; assay type: in vivo, Echinochloa crus-galli; details: postemergence
How it was run: (§1)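 ~2-wk seedlings; postemergence spray, 40 psi; vehicle 1:1 acetone:water + 0.5% Tween 20; rate ≈0.0156–0.500 kg/ha; greenhouse hold; scored 4–5 wk after treatment, 0–9 scale vs control; repeat tests averaged.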

CYPIR (Rice Flatsedge) = experiment: Postemergence weed control under flooded paddy conditions; assay type: in vivo, Cyperus iria; details: postemergence weeds, 3-4 weeks after treatment
How it was run: (§2)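 Containers holding 3–5 cm weeds and rice at 1.5–2.5 leaves are flooded to 1.5–3 cm above soil. Compound in 50/50 v/v aqueous/acetone is then added directly to the water, about 0.0313–0.500 kg/ha. Plants are kept in the greenhouse and rated 0–9 visually at 3–4 weeks.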

[2] = system: TRZAWR (Wheat, Winter, cv Riband); experiment: Preemergence herbicidal evaluation; assay type: in vivo, Triticum aestivum; details: rated 4-5 weeks after treatment
How it was run: (§3)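 Seeds were mixed with potting soil and planted on about one inch of soil, then sprayed with test compound in aqueous acetone at about 0.0156 to 0.500 kg per hectare. Plants grew under standard greenhouse care and were visually rated 0-9 against untreated controls 4-5 weeks post-treatment.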

ECHCG (Barnyardgrass) [3] = experiment: Preemergence herbicidal evaluation; assay type: in vivo, Echinochloa crus-galli; details: rated 4-5 weeks after treatment
How it was run: as §3

ZEAMX (Corn, Field) [4] = experiment: Postemergence herbicidal evaluation; assay type: in vivo, Zea mays; details: postemergence
How it was run: as §1

[5] = system: CHEAL (Lambsquarters, Common); experiment: Postemergence herbicidal evaluation; assay type: in vivo, Chenopodium album; details: postemergence
How it was run: as §1

ZEAMX (Corn, Field) [6] = experiment: Preemergence herbicidal evaluation; assay type: in vivo, Zea mays; details: rated 4-5 weeks after treatment
How it was run: as §3

ORYSAT (Rice, Tebonnet) = experiment: Postemergence herbicidal evaluation; assay type: in vivo, Oryza sativa, (L.) Tebonnet; details: postemergence
How it was run: as §1

[7] = system: CHEAL (Lambsquarters, Common); experiment: Preemergence herbicidal evaluation; assay type: in vivo, Chenopodium album; details: rated 4-5 weeks after treatment
How it was run: as §3

CASOB (Sicklepod) = experiment: Preemergence herbicidal evaluation; assay type: in vivo, Cassia obtusifolia; details: rated 4-5 weeks after treatment
How it was run: as §3

[8] = system: GLXMAW (Soybean, Williams); experiment: Preemergence herbicidal evaluation; assay type: in vivo, Glycine max, (L.) Merr. cv Williams; details: rated 4-5 weeks after treatment
How it was run: as §3

[9] = system: IPOHE (Morningglory, Ivyleaf); experiment: Postemergence herbicidal evaluation; assay type: in vivo, Ipomoea hederacea; details: postemergence
How it was run: as §1

ABUTH (Velvetleaf) [10] = experiment: Postemergence herbicidal evaluation; assay type: in vivo, Abutilon theophrasti; details: postemergence
How it was run: as §1

CYPSE (Flatsedge) = experiment: Postemergence weed control under flooded paddy conditions; assay type: in vivo, Cyperus serotinus; details: postemergence weeds, 3-4 weeks after treatment
How it was run: as §2

ABUTH (Velvetleaf) [11] = experiment: Preemergence herbicidal evaluation; assay type: in vivo, Abutilon theophrasti; details: rated 4-5 weeks after treatment
How it was run: as §3

SETVI (Foxtail, Green) = experiment: Postemergence herbicidal evaluation; assay type: in vivo, Setaria viridis; details: postemergence
How it was run: as §1

[12] = system: IPOHE (Morningglory, Ivyleaf); experiment: Preemergence herbicidal evaluation; assay type: in vivo, Ipomoea hederacea; details: rated 4-5 weeks after treatment
How it was run: as §3

CC1SC(=Nc2cc(-n3c(=O)cc(C(F)(F)F)n(C)c3=O)c(F)cc2Cl)N(C)C1=O (stereo not shown) [Compound 9]
ECHCG herbicidal rating (ECHCG (Barnyardgrass) [1]; rate 0.0156 kg/ha): 0.0 | ECHCG herbicidal rating (ECHCG (Barnyardgrass) [1]; rate 0.0313 kg/ha): 0.0 | ECHCG herbicidal rating (ECHCG (Barnyardgrass) [1]; rate 0.0625 kg/ha): 2.0 | ECHCG herbicidal rating (ECHCG (Barnyardgrass) [1]; rate 0.1250 kg/ha): 4.5 | Herbicidal rating CYPIR (CYPIR (Rice Flatsedge); rate 0.0313 kg/ha): 0.0 | Herbicidal rating CYPIR (CYPIR (Rice Flatsedge); rate 0.0625 kg/ha): 2.0 | Herbicidal rating CYPIR (CYPIR (Rice Flatsedge); rate 0.1250 kg/ha): 4.0 | Herbicidal rating CYPIR (CYPIR (Rice Flatsedge); rate 0.2500 kg/ha): 6.0 | TRZAWR preemergence herbicidal rating ([2]; rate 0.0156 kg/ha): 4.0 | TRZAWR preemergence herbicidal rating ([2]; rate 0.0313 kg/ha): 7.0 | TRZAWR preemergence herbicidal rating ([2]; rate 0.0625 kg/ha): 7.5 | TRZAWR preemergence herbicidal rating ([2]; rate 0.1250 kg/ha): 9.0 | TRZAWR preemergence herbicidal rating ([2]; rate 0.2500 kg/ha): 9.0 | ECHCG preemergence herbicidal rating (ECHCG (Barnyardgrass) [3]; rate 0.0156 kg/ha): 5.7 | ECHCG preemergence herbicidal rating (ECHCG (Barnyardgrass) [3]; rate 0.0313 kg/ha): 8.3 | ECHCG preemergence herbicidal rating (ECHCG (Barnyardgrass) [3]; rate 0.0625 kg/ha): 8.7 | ECHCG preemergence herbicidal rating (ECHCG (Barnyardgrass) [3]; rate 0.1250 kg/ha): 9.0 | ECHCG preemergence herbicidal rating (ECHCG (Barnyardgrass) [3]; rate 0.2500 kg/ha): 9.0 | ZEAMX herbicidal rating (ZEAMX (Corn, Field) [4]; rate 0.0156 kg/ha): 4.8 | ZEAMX herbicidal rating (ZEAMX (Corn, Field) [4]; rate 0.0313 kg/ha): 5.0 | ZEAMX herbicidal rating (ZEAMX (Corn, Field) [4]; rate 0.0625 kg/ha): 5.5 | ZEAMX herbicidal rating (ZEAMX (Corn, Field) [4]; rate 0.1250 kg/ha): 7.0 | CHEAL herbicidal rating ([5]; rate 0.0156 kg/ha): 6.5 | CHEAL herbicidal rating ([5]; rate 0.0313 kg/ha): 6.0 | CHEAL herbicidal rating ([5]; rate 0.0625 kg/ha): 9.0 | CHEAL herbicidal rating ([5]; rate 0.1250 kg/ha): 9.0 | ZEAMX preemergence herbicidal rating (ZEAMX (Corn, Field) [6]; rate 0.0156 kg/ha): 6.7 | ZEAMX preemergence herbicidal rating (ZEAMX (Corn, Field) [6]; rate 0.0313 kg/ha): 7.0 | ZEAMX preemergence herbicidal rating (ZEAMX (Corn, Field) [6]; rate 0.0625 kg/ha): 8.3 | ZEAMX preemergence herbicidal rating (ZEAMX (Corn, Field) [6]; rate 0.1250 kg/ha): 8.7 | ZEAMX preemergence herbicidal rating (ZEAMX (Corn, Field) [6]; rate 0.2500 kg/ha): 8.7 | ORYSAT herbicidal rating (ORYSAT (Rice, Tebonnet); rate 0.0156 kg/ha): 2.0 | ORYSAT herbicidal rating (ORYSAT (Rice, Tebonnet); rate 0.0313 kg/ha): 2.3 | ORYSAT herbicidal rating (ORYSAT (Rice, Tebonnet); rate 0.0625 kg/ha): 3.0 | ORYSAT herbicidal rating (ORYSAT (Rice, Tebonnet); rate 0.1250 kg/ha): 3.5 | CHEAL preemergence herbicidal rating ([7]; rate 0.0156 kg/ha): 9.0 | CHEAL preemergence herbicidal rating ([7]; rate 0.0313 kg/ha): 9.0 | CHEAL preemergence herbicidal rating ([7]; rate 0.0625 kg/ha): 9.0 | CHEAL preemergence herbicidal rating ([7]; rate 0.1250 kg/ha): 9.0 | CHEAL preemergence herbicidal rating ([7]; rate 0.2500 kg/ha): 9.0 | CASOB preemergence herbicidal rating (CASOB (Sicklepod); rate 0.0156 kg/ha): 1.0 | CASOB preemergence herbicidal rating (CASOB (Sicklepod); rate 0.0313 kg/ha): 1.0 | CASOB preemergence herbicidal rating (CASOB (Sicklepod); rate 0.0625 kg/ha): 3.0 | CASOB preemergence herbicidal rating (CASOB (Sicklepod); rate 0.1250 kg/ha): 5.3 | CASOB preemergence herbicidal rating (CASOB (Sicklepod); rate 0.2500 kg/ha): 8.0 | GLXMAW preemergence herbicidal rating ([8]; rate 0.0156 kg/ha): 4.0 | GLXMAW preemergence herbicidal rating ([8]; rate 0.0313 kg/ha): 6.0 | GLXMAW preemergence herbicidal rating ([8]; rate 0.0625 kg/ha): 6.3 | GLXMAW preemergence herbicidal rating ([8]; rate 0.1250 kg/ha): 8.7 | GLXMAW preemergence herbicidal rating ([8]; rate 0.2500 kg/ha): 9.0 | IPOHE herbicidal rating ([9]; rate 0.0156 kg/ha): 4.0 | IPOHE herbicidal rating ([9]; rate 0.0313 kg/ha): 7.0 | IPOHE herbicidal rating ([9]; rate 0.0625 kg/ha): 9.0 | IPOHE herbicidal rating ([9]; rate 0.1250 kg/ha): 9.0 | ABUTH herbicidal rating (ABUTH (Velvetleaf) [10]; rate 0.0156 kg/ha): 9.0 | ABUTH herbicidal rating (ABUTH (Velvetleaf) [10]; rate 0.0313 kg/ha): 9.0 | ABUTH herbicidal rating (ABUTH (Velvetleaf) [10]; rate 0.0625 kg/ha): 9.0 | ABUTH herbicidal rating (ABUTH (Velvetleaf) [10]; rate 0.1250 kg/ha): 9.0 | Herbicidal rating CYPSE (CYPSE (Flatsedge); rate 0.0313 kg/ha): 0.0 | Herbicidal rating CYPSE (CYPSE (Flatsedge); rate 0.0625 kg/ha): 0.0 | Herbicidal rating CYPSE (CYPSE (Flatsedge); rate 0.1250 kg/ha): 2.0 | Herbicidal rating CYPSE (CYPSE (Flatsedge); rate 0.2500 kg/ha): 7.0 | ABUTH preemergence herbicidal rating (ABUTH (Velvetleaf) [11]; rate 0.0156 kg/ha): 9.0 | ABUTH preemergence herbicidal rating (ABUTH (Velvetleaf) [11]; rate 0.0313 kg/ha): 9.0 | ABUTH preemergence herbicidal rating (ABUTH (Velvetleaf) [11]; rate 0.0625 kg/ha): 9.0 | ABUTH preemergence herbicidal rating (ABUTH (Velvetleaf) [11]; rate 0.1250 kg/ha): 9.0 | ABUTH preemergence herbicidal rating (ABUTH (Velvetleaf) [11]; rate 0.2500 kg/ha): 9.0 | SETVI herbicidal rating (SETVI (Foxtail, Green); rate 0.0156 kg/ha): 1.0 | SETVI herbicidal rating (SETVI (Foxtail, Green); rate 0.0313 kg/ha): 2.0 | SETVI herbicidal rating (SETVI (Foxtail, Green); rate 0.0625 kg/ha): 6.5 | SETVI herbicidal rating (SETVI (Foxtail, Green); rate 0.1250 kg/ha): 9.0 | IPOHE preemergence herbicidal rating ([12]; rate 0.0156 kg/ha): 5.0 | IPOHE preemergence herbicidal rating ([12]; rate 0.0313 kg/ha): 7.7 | IPOHE preemergence herbicidal rating ([12]; rate 0.0625 kg/ha): 7.0 | IPOHE preemergence herbicidal rating ([12]; rate 0.1250 kg/ha): 9.0 | IPOHE preemergence herbicidal rating ([12]; rate 0.2500 kg/ha): 9.0

Source: US20020137929A1, “1 - (3-heterocyclylphenyl) isothiourea, -isourea, -guanidine and -amidine herbicidal agents” (Intellectual Property Department, BASF Aktiengesellschaft, priority 1998, published 2002)
